Laboratory results: US20220291235A1, “ACOUSTO-THERMAL SHIFT ASSAY FOR LABEL-FREE PROTEIN ANALYSIS” (THE REGENTS OF THE UNIVERSITY OF COLORADO - A BODY CORPORATE, priority 2019, published 2022)

Columns and labels:
[1] = biological target: T1, citrate synthase (CS) from porcine heart (Sus scrofa, UniProt P00889); test: Acousto-thermal shift assay (A-TSA), CS-OAA binding; conditions: same SAW actuation (19.6 MHz, 3 Watts), CS 15 μM
T1 construct: citrate synthase (CS) from porcine heart (Millipore Sigma); purchased Millipore Sigma; host or cells: porcine heart
T1 sequence (P00889 28-464): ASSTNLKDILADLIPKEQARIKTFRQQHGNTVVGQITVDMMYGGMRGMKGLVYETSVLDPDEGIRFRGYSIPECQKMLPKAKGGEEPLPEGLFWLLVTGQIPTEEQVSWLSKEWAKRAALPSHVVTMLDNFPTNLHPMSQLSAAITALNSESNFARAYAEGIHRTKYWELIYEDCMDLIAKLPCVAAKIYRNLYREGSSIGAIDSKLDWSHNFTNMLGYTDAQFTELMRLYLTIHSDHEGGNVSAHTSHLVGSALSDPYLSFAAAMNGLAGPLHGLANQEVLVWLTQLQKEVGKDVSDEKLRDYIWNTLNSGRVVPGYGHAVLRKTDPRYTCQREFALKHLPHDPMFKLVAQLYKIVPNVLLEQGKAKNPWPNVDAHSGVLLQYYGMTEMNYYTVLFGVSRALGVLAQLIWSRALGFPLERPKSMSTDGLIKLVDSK
Source text: (§1) Specifically, two identical SAWs were generated by applying an AC (alternating current) signal to a pair of interdigital transducers (IDTs) deposited on the surface of a lithium niobate piezoelectric substrate. A standing SAW was formed within a 1×10 mm^2 polydimethylsiloxane (PDMS) microchannel. The microchannel was bonded on top of a substrate between these two IDTs. See, FIGS. 4A(i) and FIG. 4B. […] Most proteins rapidly precipitate and aggregate after their unfolding. See, FIG. 4A(ii).
(§2) Simultaneously, the standing SAW aggregates and concentrates precipitated protein along the acoustic pressure nodes and/or antinodes. See, FIG. 4A(iii). Gray intensity (Im) of the precipitated and aggregated proteins was analyzed and plotted as a function of SAW time, giving rise to a sigmoidal melting curve. See, FIG. 4A(iv). The melting time (Tm) was determined as the time point when half of proteins were unfolded (i.e. herein, a 50% change of gray intensity occurs where Im=(Imax+Imin)/2.). Using this simple analysis, the time shift Δτm between between two samples can be measured at a given SAW power and analyzed to compare conditions or ligands that stabilize or destabilize proteins. Overall, this new technique provides a rapid, simple and efficient workflow for analysis of changes in apparent melting curves. […]

[2] = biological target: T1, citrate synthase (CS) from porcine heart; test: Conventional thermal shift assay, SYPRO DSF assay (DSF-TSA), CS-OAA binding; conditions: OAA present
Protocol: In some embodiments, SAW-driven protein unfolding and concentration can be used for analysis of protein-ligand binding to analyze the melting temperature (Tm) and its shift (Δtm) upon protein-ligand binding. Gray intensity of the precipitated and concentrated proteins was measured and plotted as a function of SAW time in A-TSA. See, FIG. 5A. Two control conventional TSA methods were performed in parallel measuring the data using either a differential scanning fluorimetry (DSF) assay or a bicinchoninic acid (BCA) assay. DSF, the most popular C-TSA method, utilizes dye fluorescence as a measure of protein unfolding. Matulis et al., “Thermodynamic stability of carbonic anhydrase: measurements of binding affinity and stoichiometry using ThermoFluor” J. Biochemistry 44:5258-5266 (2005). On the other hand, BCA quantifies the amount of remaining soluble proteins after thermal unfolding. Brown et al., “Protein measurement using bicinchoninic acid: elimination of interfering substances” Anal. Biochem. 180:136-139 (1989).
SYPRO DSF assay: SYPRO Orange melting curves were collected using the 7900HT Fast Real-Time PCR System. […] To analyze melting curves, the fluorescence was normalized to the starting temperature and to no protein controls. The data was then scaled to interval (0,1) and then the replicates were averaged, and standard deviation calculated.

[3] = biological target: T1, citrate synthase (CS) from porcine heart; test: Conventional thermal shift assay, BCA assay (BCA-TSA), CS-OAA binding
Protocol: (§3) In some embodiments, SAW-driven protein unfolding and concentration can be used for analysis of protein-ligand binding to analyze the melting temperature (Tm) and its shift (Δtm) upon protein-ligand binding. Gray intensity of the precipitated and concentrated proteins was measured and plotted as a function of SAW time in A-TSA. See, FIG. 5A. Two control conventional TSA methods were performed in parallel measuring the data using either a differential scanning fluorimetry (DSF) assay or a bicinchoninic acid (BCA) assay. DSF, the most popular C-TSA method, utilizes dye fluorescence as a measure of protein unfolding. Matulis et al., “Thermodynamic stability of carbonic anhydrase: measurements of binding affinity and stoichiometry using ThermoFluor” J. Biochemistry 44:5258-5266 (2005). On the other hand, BCA quantifies the amount of remaining soluble proteins after thermal unfolding. Brown et al., “Protein measurement using bicinchoninic acid: elimination of interfering substances” Anal. Biochem. 180:136-139 (1989). BCA assay: For thermal gradient profiling, a gradient program was created using a PTC-200 thermal cycler (MJ Research, Reno, N.V., USA) to cover the temperature points indicated in each figure. A PCR plate was prepared with 25 μL per well of recombinant protein or lysate and sealed (4titude Random Access, PN 4ti-0960/RA 96-well plate). […]

[4] = biological target: T2, human hemoglobin (Hb) (Homo sapiens, UniProt P68871+P69905); test: Acousto-thermal shift assay (A-TSA), Hb-Pal binding; conditions: SAW 19.6 MHz, 3 Watts, Hb 31 μM
T2 construct: purchased Millipore Sigma
Source text: as §1, §2

[5] = biological target: T2, human hemoglobin (Hb); test: Conventional thermal shift assay, BCA assay (BCA-TSA), Hb-Pal binding
Protocol: as §3

T2 sequence (P69905 2-142 limits assumed): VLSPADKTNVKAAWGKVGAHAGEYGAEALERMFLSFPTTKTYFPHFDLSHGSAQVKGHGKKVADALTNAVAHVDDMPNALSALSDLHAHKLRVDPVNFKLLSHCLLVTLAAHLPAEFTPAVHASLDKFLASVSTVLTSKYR
T2 sequence (P68871 2-147 limits assumed): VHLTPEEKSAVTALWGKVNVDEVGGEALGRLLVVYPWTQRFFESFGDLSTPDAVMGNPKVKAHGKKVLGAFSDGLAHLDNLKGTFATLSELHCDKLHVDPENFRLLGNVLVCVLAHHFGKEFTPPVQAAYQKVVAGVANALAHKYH

Row | Structure (SMILES) | increase of tm of CS (36.23 s) upon ligand binding ([1]; 1 mM OAA) | increase of tm of CS (36.23 s) upon ligand binding ([1]; 2 mM OAA) | tm shift of CS as detected in DSF assay [2] | increase of Tm of CS (60.3° C.) upon ligand binding ([3]; 1 mM OAA) | increase of Tm of CS (60.3° C.) upon ligand binding ([3]; 2 mM OAA) | reduction of melting time (Tm) of Hb (46.85 s) upon ligand binding ([4]; 0.62 mM Pal) | reduction of melting time (Tm) of Hb (46.85 s) upon ligand binding ([4]; 1.24 mM Pal) | decrease of Tm of Hb (59.1° C.) upon ligand binding ([5]; 0.62 mM Pal) | decrease of Tm of Hb (59.1° C.) upon ligand binding ([5]; 1.24 mM Pal)
1 | O=C(O)CC(=O)C(=O)O [OAA, oxaloacetic acid] | 10.45 s | 15.77 s | small and not statistically significant | 2.0 °C | 2.9 °C |  |  |  | 
2 | COc1cc2c(cc1OC)-c1cc3ccc(OC)c(OC)c3c[n+]1CC2 [Pal, palmatine chloride] |  |  |  |  |  | 3.52 s | 7.30 s | 0.7 °C | 1.1 °C
